Where two headings read alike, the source gives them in different places.
Experiments:
A549/ATCC = test: NCI-60 drug screen (SRB), NSCLC line A549/ATCC; assay type: cell-based, human; conditions: for LC50 (concentration killing 50% of cells) / GI50: Homo sapiens
Description: (§1) As a primary screening, seven selected compounds were submitted to the National Cancer Institute (NCI) cell lines screen for evaluation of their anticancer activity. From the data analysis, it follows that approximately 95% of the actives from the 60 cell lines screen can be identified. The detailed methods used for the 60 cell lines panel have been described elsewhere [54]–[59]. Briefly, cellular protein levels were determined after 48 hours of drug exposure by SRB colorimetry. Through the use of a time zero cell control, the cell growth can be determined for each cell line thus allowing calculations of GI50, TGI, and LC50. Comparison to plates not exposed to drug permits determination of concentration and times of exposure conferring GI50, TGI, and LC50. […] By these criteria, seven compounds reported from our compounds bank were all active and passed on for evaluation in the full panel of 60 human tumor cell lines. The panel is organized into nine subpanels representing diverse histology: leukemia, melanoma, and cancers of the lung, colon, kidney, ovary, breast, prostate, and central nervous system.

EKVX = test: NCI-60 drug screen (SRB), NSCLC line EKVX; assay type: cell-based, human; conditions: for LC50 / GI50: Homo sapiens
Description: as §1

HOP-62 = test: NCI-60 drug screen (SRB), NSCLC line HOP-62; assay type: cell-based, human; conditions: for GI50 / CC50: Homo sapiens; for CC50: read-out: LC50 (the source's name)
Description: as §1

HOP-92 = test: NCI-60 drug screen (SRB), NSCLC line HOP-92; assay type: cell-based, human; conditions: for GI50 / CC50: Homo sapiens; for CC50: read-out: LC50 (the source's name)
Description: as §1

NCI-H23 = test: NCI-60 drug screen (SRB), NSCLC line NCI-H23; assay type: cell-based, human; conditions: for GI50 / CC50: Homo sapiens; for CC50: read-out: LC50 (the source's name)
Description: as §1

NCI-H322M = test: NCI-60 drug screen (SRB), NSCLC line NCI-H322M; assay type: cell-based, human; conditions: for LC50 / GI50: Homo sapiens
Description: as §1

[1] = system: Oct-4- and Nanog-overexpressed A549 clone (A3); test: MTT cytotoxicity assay, A3 cells; assay type: cell-based; conditions: Homo sapiens, 48 h of drug exposure
Description: (§2) Non-small cell lung cancer cells A549 and Oct-4- and Nanog-overexpressed A549 clone (clone #3; A3), presented the properties of cancer stem-like cells, as well as epithelial-mesenchymal transdifferentiation, according to our previous study. They were grown in the same conditions as RPMI 1640 media supplemented with 10% fetal bovine serum (FBS), 100 units/mL penicillin, […] streptomycin, 1 mM sodium pyruvate, 2 mM l-glutamine and 1% non-essential amino acid (NEAA) in a humidified atmosphere with 5% CO2 at 37°C. Normal fibroblast cells HEL299 from American Type Culture Collection (ATCC) were grown in MEM media supplemented with 10% FBS, 100 units/mL penicillin, […] streptomycin, 1 mM sodium pyruvate, 2 mM l-glutamine and 1% NEAA, in a humidified atmosphere with 5% CO2 at 37°C.
(§3) The tetrazolium reagent (MTT; 3-(4,5-dimethylthiazol-2-yl)-2,5-diphenyl-tetrazolium bromide, USB) was designed to yield a colored formazan upon metabolic reduction by viable cells, [61]. Approximately 5×10^4 cells were plated onto each well of a 24-well plate and incubated in 5% CO2 at 37°C for 24 hours. To assess the in vitro cytotoxicity, each compound was dissolved in DMSO and prepared immediately before the experiments and then was diluted into the complete medium before being added to cell cultures. Test compounds were then added to the culture medium in various designated concentrations. After 48 hours, an amount of 100 µl of MTT was added to each well, and the samples were incubated at 37°C for 2 h. 100 µl DMSO was added to each well. The absorbency at 560 nm and reference absorbency at 670 nm were measured using an ELISA reader.

A549 cells = test: MTT cytotoxicity assay, A549 cells; assay type: cell-based; conditions: Homo sapiens, 48 h of drug exposure
Description: as §2, §3

A3 clone = test: Sphere formation and cell viability assay in A3 clone; assay type: cell-based, human; conditions: treated A3 clone; for sphere formation: serum free medium with bFGF and EGF (10 ng/ml)
[2] = system: PARP-1 mRNA expression in A3 cells; test: Quantitative RT-PCR of PARP-1 in treated A3 cells; assay type: cell-based, human
Excerpt: RNA was isolated from cells with the TRIzol (Invitrogen) reagent […], and this was followed by RNA clean up with the RNeasy Minikit (QIAGEN). cDNA was produced with the First Strand cDNA Synthesis Kit (Roche). Real-time quantitative PCR reactions were set up in triplicate with the Brilliant II SYBR Green QPCR Master Mix (Stratagene) and run on an Mx3000P QPCR System (Stratagene).

NCI-60 cancer cell lines = test: NCI-60 panel of human tumor cell lines, median GI50; assay type: cell-based; conditions: median over NCI-60 cancer cell lines, read-out: median 50% growth inhibitory concentration (GI50)
Description: as §1

[3] = 48 hours drug exposure, SRB, read-out: GI50
[4] = NCI in vitro 60-cell lines Drug Screen, read-out: -Log GI50 (converted)

Compound	TGI (A549/ATCC; 48 hours drug exposure, SRB) [µM]	LC50 (concentration killing 50% of cells) (A549/ATCC; 48 hours drug exposure, SRB) [µM]	GI50 (A549/ATCC; [3]) [µM]	GI50 (A549/ATCC; [4]) [µM]	TGI (EKVX; 48 hours drug exposure, SRB) [µM]	LC50 (EKVX; 48 hours drug exposure, SRB) [µM]	GI50 (EKVX; [3]) [µM]	GI50 (EKVX; [4]) [µM]	TGI (HOP-62; 48 hours drug exposure, SRB) [µM]	GI50 (HOP-62; [3]) [µM]	CC50 (HOP-62; 48 hours drug exposure, SRB) [µM]	GI50 (HOP-62; [4]) [µM]	TGI (NCI-H23; 48 hours drug exposure, SRB) [µM]	GI50 (NCI-H23; [3]) [µM]	CC50 (NCI-H23; 48 hours drug exposure, SRB) [µM]	GI50 (NCI-H23; [4]) [µM]	GI50 (NCI-H322M; [3]) [µM]	GI50 (NCI-H322M; [4]) [µM]	IC50 [1] [µM]	IC50 (A549 cells) [µM]	further results
O=C(CCN1CCCC1)Nc1ccc2c(c1)C(=O)c1cc(NC(=O)CCN3CCCC3)ccc1C2=O [NSC746366]	12.7	74.7	2.2	2.19	20.4	> 100	3.57	3.55	11.6	2.48	45.4	2.51	17.3	2.38	> 100	2.4	1.81	1.82	5.77	7.76	TGI (HOP-92; 48 hours drug exposure, SRB): 0.82 µM; GI50 (HOP-92; [3]): 0.45 µM; CC50 (HOP-92; 48 hours drug exposure, SRB): 34.6 µM; GI50 (HOP-92; [4]): 0.447 µM; TGI (NCI-H322M; 48 hours drug exposure, SRB): 10.9 µM; LC50 (NCI-H322M; 48 hours drug exposure, SRB): 42 µM
Cc1ccc(C(=O)Nc2c(NC(=O)CCl)ccc3c2C(=O)c2ccccc2C3=O)cc1 [NSC749232]	29.2	> 100	12.3	12.3	14.9	> 100	1.98	2	9.49	2.97	24.4	2.95	8.28	1.78	31.4	1.78	3.76	3.8	4.85	6.62	TGI (HOP-92; 48 hours drug exposure, SRB): 31.7 µM; GI50 (HOP-92; [3]): 9.73 µM; CC50 (HOP-92; 48 hours drug exposure, SRB): > 100 µM; GI50 (HOP-92; [4]): 9.77 µM; TGI (NCI-H322M; 48 hours drug exposure, SRB): 13.7 µM; LC50 (NCI-H322M; 48 hours drug exposure, SRB): 45.4 µM; cell growth / cell viability (A3 clone): inhibit the cell growth; sphere formation (A3 clone): effectively block the sphere formation; expression levels of PARP-1 (mRNA) [2]: inhibit the expression levels of PARP-1
CN1CCN(Cc2nc3ccc4c(c3[nH]2)C(=O)c2ccccc2C4=O)CC1 [NSC749235]	24.3	67.2	7.58	7.59	28.8	> 100	6.69	6.76	30.5	19.4	95.4	9.33	30.1	10.7	84.8	10.7	8.7	8.71	7.67	10.6	TGI (HOP-92; 48 hours drug exposure, SRB): 91.8 µM; GI50 (HOP-92; [3]): 7.97 µM; CC50 (HOP-92; 48 hours drug exposure, SRB): > 100 µM; GI50 (HOP-92; [4]): 7.94 µM; TGI (NCI-H322M; 48 hours drug exposure, SRB): 43.3 µM; LC50 (NCI-H322M; 48 hours drug exposure, SRB): > 100 µM; cell growth / cell viability (A3 clone): inhibit the cell growth; sphere formation (A3 clone): effectively block the sphere formation; expression levels of PARP-1 (mRNA) [2]: inhibit the expression levels of PARP-1
CCN(CC)CCC(=O)Nc1ccc2c(c1)C(=O)c1cc(NC(=O)CCN(CC)CC)ccc1C2=O [NSC746365]	3.95	15.5	1.44	1.45	11.0	34.6	3.05	3.02	5.80	1.73	24	1.74	3.55	1.53	8.27	1.51	2.85	2.82	5.21	7.66	TGI (HOP-92; 48 hours drug exposure, SRB): 0.06 µM; GI50 (HOP-92; [3]): 0.01 µM; CC50 (HOP-92; 48 hours drug exposure, SRB): 3.48 µM; GI50 (HOP-92; [4]): 0.0148 µM; LC50 (NCI-H322M; 48 hours drug exposure, SRB): 4.71 µM
CN(C)CC(=O)Nc1ccc2c(c1)C(=O)c1cc(NC(=O)CN(C)C)ccc1C2=O [NSC746364]	4.43	> 100	1.45	1.45	31.4	77.4	12.8	12.9	20.5	4.56	60.8	4.57	28.1	11	71.8	11	1.86	1.86	5.9	4.49	TGI (HOP-92; 48 hours drug exposure, SRB): 31.7 µM; GI50 (HOP-92; [3]): 10.4 µM; CC50 (HOP-92; 48 hours drug exposure, SRB): 96.6 µM; GI50 (HOP-92; [4]): 10.5 µM; TGI (NCI-H322M; 48 hours drug exposure, SRB): 4.91 µM; LC50 (NCI-H322M; 48 hours drug exposure, SRB): 83.1 µM
CN(C)CCCSc1nc2ccc3c(c2[nH]1)C(=O)c1ccccc1C3=O [NSC747854]	12.6		3.26	3.24	20.1		4.2	4.17	32.3	5.9	48.9	5.89	19.7	5.73	46.9	5.75	0.72	0.724	5.88	12.2	TGI (NCI-H322M; 48 hours drug exposure, SRB): 20.6 µM; GI50 (NCI-60 cancer cell lines): 6.92 µM; cell growth / cell viability (A3 clone): inhibit the cell growth; sphere formation (A3 clone): effectively block the sphere formation; expression levels of PARP-1 (mRNA) [2]: inhibit the expression levels of PARP-1

From paper PMC3581553, “New Approaches of PARP-1 Inhibitors in Human Lung Cancer Cells and Cancer Stem-Like Cells by Some Selected Anthraquinone-Derived Small Molecules” (PLoS ONE, 2013)
